Source: PubChem BioAssay AID1259407 (Chemical Carcinogenesis Research Information System (CCRIS), 2018)
Active and inactive are the calls of the source. No rule for the calls is given here.

Tested on: CCRIS mutagenicity, Ames/micronucleus/aberration tests
Assay: CCRIS mutagenicity studies
[1] = Test System: AMES SALMONELLA TYPHIMURIUM, Strain/Indicator: TA98, Metabolic Activation: NONE, Method: STANDARD PLATE
[2] = Test System: AMES SALMONELLA TYPHIMURIUM, Strain/Indicator: TA100, Metabolic Activation: NONE, Method: STANDARD PLATE
[3] = Test System: AMES SALMONELLA TYPHIMURIUM, Strain/Indicator: TA1537, Metabolic Activation: NONE, Method: STANDARD PLATE
[4] = Test System: AMES SALMONELLA TYPHIMURIUM, Strain/Indicator: TA1538, Metabolic Activation: NONE, Method: STANDARD PLATE
[5] = Test System: AMES SALMONELLA TYPHIMURIUM, Strain/Indicator: TA98, Metabolic Activation: NONE, Method: PREINCUBATION
[6] = Test System: AMES SALMONELLA TYPHIMURIUM, Strain/Indicator: TA100, Metabolic Activation: NONE, Method: PREINCUBATION
[7] = Test System: AMES SALMONELLA TYPHIMURIUM, Strain/Indicator: TA98, Metabolic Activation: RAT, LIVER, S-9, AROCLOR 1254, Method: STANDARD PLATE
[8] = Test System: AMES SALMONELLA TYPHIMURIUM, Strain/Indicator: TA100, Metabolic Activation: RAT, LIVER, S-9, AROCLOR 1254, Method: STANDARD PLATE
[9] = Test System: AMES SALMONELLA TYPHIMURIUM, Strain/Indicator: TA1535, Metabolic Activation: NONE, Method: STANDARD PLATE
[10] = Test System: AMES SALMONELLA TYPHIMURIUM, Strain/Indicator: TA1535, Metabolic Activation: RAT, LIVER, S-9, AROCLOR 1254, Method: STANDARD PLATE
[11] = Test System: AMES SALMONELLA TYPHIMURIUM, Strain/Indicator: TA1537, Metabolic Activation: RAT, LIVER, S-9, AROCLOR 1254, Method: STANDARD PLATE

CCC1CCC(CCC(=O)[O-])C1.CCC1CCC(CCC(=O)[O-])C1.[Co+2] (configuration not stated)
mutagenic call (Test System: AMES SALMONELLA TYPHIMURIUM, Strain/Indicator: TA98, Metabolic Activation: HAMSTER, LIVER, S-9, AROCLOR 1254 (10%), Method: STANDARD PLATE): inactive; negative | mutagenic call [1]: inactive; negative | mutagenic call (Test System: AMES SALMONELLA TYPHIMURIUM, Strain/Indicator: TA98, Metabolic Activation: RAT, LIVER, S-9, AROCLOR 1254 (10%), Method: STANDARD PLATE): active; positive | mutagenic call (Test System: AMES SALMONELLA TYPHIMURIUM, Strain/Indicator: TA100, Metabolic Activation: HAMSTER, LIVER, S-9, AROCLOR 1254 (10%), Method: STANDARD PLATE): inactive; negative | mutagenic call [2]: inactive; negative | mutagenic call (Test System: AMES SALMONELLA TYPHIMURIUM, Strain/Indicator: TA100, Metabolic Activation: RAT, LIVER, S-9, AROCLOR 1254 (10%), Method: STANDARD PLATE): inactive; negative | mutagenic call (Test System: AMES SALMONELLA TYPHIMURIUM, Strain/Indicator: TA1537, Metabolic Activation: HAMSTER, LIVER, S-9, AROCLOR 1254 (10%), Method: STANDARD PLATE): inactive; negative | mutagenic call [3]: inactive; negative | mutagenic call (Test System: AMES SALMONELLA TYPHIMURIUM, Strain/Indicator: TA1537, Metabolic Activation: RAT, LIVER, S-9, AROCLOR 1254 (10%), Method: STANDARD PLATE): inactive; negative | mutagenic call (Test System: AMES SALMONELLA TYPHIMURIUM, Strain/Indicator: TA1538, Metabolic Activation: HAMSTER, LIVER, S-9, AROCLOR 1254 (10%), Method: STANDARD PLATE): inactive; negative | mutagenic call [4]: inactive; negative | mutagenic call (Test System: AMES SALMONELLA TYPHIMURIUM, Strain/Indicator: TA1538, Metabolic Activation: RAT, LIVER, S-9, AROCLOR 1254 (10%), Method: STANDARD PLATE): active; positive | mutagenic call (Test System: MOUSE LYMPHOMA, Strain/Indicator: L5178Y (TK+/TK-), Metabolic Activation: NONE, Method: SUSPENSION/PLATE): inactive; negative. reevaluation of results: negative | mutagenic call (Test System: MOUSE LYMPHOMA, Strain/Indicator: L5178Y (TK+/TK-), Metabolic Activation: RAT, LIVER, S-9, AROCLOR 1254, Method: SUSPENSION/PLATE): inactive; negative. reevaluation of results: equivocal

CC(=O)Nc1cccc(N)c1C(=O)O
mutagenic call [5]: inactive; negative | mutagenic call (Test System: AMES SALMONELLA TYPHIMURIUM, Strain/Indicator: TA98, Metabolic Activation: RAT, LIVER, S-9, PHENOBARBITAL AND 5,6-BENZOFLAVONE, Method: PREINCUBATION): active; positive | mutagenic call [6]: inactive; negative | mutagenic call (Test System: AMES SALMONELLA TYPHIMURIUM, Strain/Indicator: TA100, Metabolic Activation: RAT, LIVER, S-9, PHENOBARBITAL AND 5,6-BENZOFLAVONE, Method: PREINCUBATION): inactive; negative

CC(NCc1ccccc1)C(=O)NCc1ccccc1 (configuration not stated)
mutagenic call [2]: inactive; negative

Fc1c(F)c(F)c(Cl)c(F)c1F
mutagenic call [5]: inactive; negative | mutagenic call [1]: inactive; negative | mutagenic call (Test System: AMES SALMONELLA TYPHIMURIUM, Strain/Indicator: TA98, Metabolic Activation: RAT, LIVER, S-9, AROCLOR 1254, Method: PREINCUBATION): inactive; negative | mutagenic call [7]: inactive; negative | mutagenic call [6]: inactive; negative | mutagenic call [2]: inactive; negative | mutagenic call (Test System: AMES SALMONELLA TYPHIMURIUM, Strain/Indicator: TA100, Metabolic Activation: RAT, LIVER, S-9, AROCLOR 1254, Method: PREINCUBATION): inactive; negative | mutagenic call [8]: inactive; negative | mutagenic call (Test System: AMES SALMONELLA TYPHIMURIUM, Strain/Indicator: TA1535, Metabolic Activation: NONE, Method: PREINCUBATION): inactive; negative | mutagenic call [9]: inactive; negative | mutagenic call (Test System: AMES SALMONELLA TYPHIMURIUM, Strain/Indicator: TA1535, Metabolic Activation: RAT, LIVER, S-9, AROCLOR 1254, Method: PREINCUBATION): inactive; negative | mutagenic call [10]: inactive; negative | mutagenic call (Test System: AMES SALMONELLA TYPHIMURIUM, Strain/Indicator: TA1537, Metabolic Activation: NONE, Method: PREINCUBATION): inactive; negative | mutagenic call [3]: inactive; negative | mutagenic call (Test System: AMES SALMONELLA TYPHIMURIUM, Strain/Indicator: TA1537, Metabolic Activation: RAT, LIVER, S-9, AROCLOR 1254, Method: PREINCUBATION): inactive; negative | mutagenic call [11]: inactive; negative | mutagenic call (Test System: AMES SALMONELLA TYPHIMURIUM, Strain/Indicator: TA1538, Metabolic Activation: NONE, Method: PREINCUBATION): inactive; negative | mutagenic call [4]: inactive; negative | mutagenic call (Test System: AMES SALMONELLA TYPHIMURIUM, Strain/Indicator: TA1538, Metabolic Activation: RAT, LIVER, S-9, AROCLOR 1254, Method: PREINCUBATION): inactive; negative | mutagenic call (Test System: AMES SALMONELLA TYPHIMURIUM, Strain/Indicator: TA1538, Metabolic Activation: RAT, LIVER, S-9, AROCLOR 1254, Method: STANDARD PLATE): inactive; negative | mutagenic call (Test System: CHINESE HAMSTER OVARY, Strain/Indicator: CHO (HGPRT), Metabolic Activation: NONE): inactive; negative | mutagenic call (Test System: CHINESE HAMSTER OVARY, Strain/Indicator: CHO (HGPRT), Metabolic Activation: RAT, LIVER, S-9, AROCLOR 1254): inactive; negative | mutagenic call (Test System: CHINESE HAMSTER OVARY, Strain/Indicator: CHO-K1-BH4 (HGPRT)/6-THIOGUANINE, Metabolic Activation: NONE, Method: SUSPENSION/PLATE): inactive; negative | mutagenic call (Test System: CHINESE HAMSTER OVARY, Strain/Indicator: CHO-K1-BH4 (HGPRT)/6-THIOGUANINE, Metabolic Activation: RAT, LIVER, S-9, AROCLOR 1254, Method: SUSPENSION/PLATE): inactive; negative | mutagenic call (Test System: CHO/HGPRT, Strain/Indicator: CHO-K1-BH4, Metabolic Activation: NONE, Method: SUSPENSION/PLATE): inactive; negative | mutagenic call (Test System: CHO/HGPRT, Strain/Indicator: CHO-K1-BH4, Metabolic Activation: RAT, LIVER, S-9, AROCLOR 1254, Method: SUSPENSION/PLATE): inactive; negative | mutagenic call (Test System: UDS RAT PRIMARY HEPATOCYTES, Strain/Indicator: THY INCORP, Metabolic Activation: NONE, Method: IN VIVO-IN VITRO): inactive; negative | mutagenic call (Test System: UDS RODENT HEPATOCYTES, Strain/Indicator: THY INCORP (NON-S-PHASE), Metabolic Activation: NONE): inactive; negative

COCCN(N=O)C(N)=O
mutagenic call (Test System: E. COLI B, Strain/Indicator: H/R30R, Metabolic Activation: NONE): active; positive | mutagenic call (Test System: E. COLI B, Strain/Indicator: HS30R, Metabolic Activation: NONE): active; positive

O=C(c1ccc([N+](=O)[O-])cc1)n1ncc(Cl)c(Cl)c1=O
mutagenic call [1]: inactive; negative | mutagenic call [7]: inactive; negative | mutagenic call [2]: active; positive | mutagenic call [8]: active; positive | mutagenic call [9]: active; positive | mutagenic call [10]: active; positive | mutagenic call [3]: inactive; negative | mutagenic call [11]: inactive; negative

N#CC(C#N)=Cc1ccc([N+](=O)[O-])o1
mutagenic call [5]: active; positive

N#CC1=Cc2cccc3cccc1c23
mutagenic call [1]: inactive; negative | mutagenic call [7]: inactive; negative | mutagenic call [2]: active; positive | mutagenic call [8]: active; positive
